According to ChEMBL document CHEMBL3351986, “Probing linker design in citric acid-ciprofloxacin conjugates” (2014):
Values after ≈ are worked out from the molar mass of the structure shown. Each block holds one molecule with its values, some of them ahead of it. Active and inactive are the calls of the source. No cut-off for these calls is given here.

Assays:
[1] = test system: Stenotrophomonas maltophilia; test: Antimicrobial activity against Stenotrophomonas maltophilia N1127 after 18 hrs by micro dilution method; type: functional; conditions: N1127, 18 h
[2] = test system: Staphylococcus aureus; test: Antimicrobial activity against Staphylococcus aureus BIG 52 after 18 hrs by micro dilution method; type: functional; conditions: BIG 52, 18 h
[3] = test system: Serratia marcescens; test: Ratio of compound MIC to ciprofloxacin MIC for Serratia marcescens BIG 11 NCTC 1377 after 18 hrs by micro dilution method; type: functional
[4] = test system: Pseudomonas aeruginosa; test: Antimicrobial activity against Pseudomonas aeruginosa NCTC 10662 after 18 hrs by micro dilution method; type: functional; conditions: NCTC 10662, 18 h
[5] = test system: Staphylococcus aureus; test: Antimicrobial activity against Staphylococcus aureus NCTC 13143 after 18 hrs by micro dilution method; type: functional; conditions: NCTC 13143, 18 h
[6] = test system: Staphylococcus aureus; test: Ratio of compound MIC to ciprofloxacin MIC for Staphylococcus aureus NCTC 13142 after 18 hrs by micro dilution method; type: functional
[7] = test system: Stenotrophomonas maltophilia; test: Ratio of compound MIC to ciprofloxacin MIC for Stenotrophomonas maltophilia N1127 after 18 hrs by micro dilution method; type: functional
[8] = test system: Burkholderia cepacia; test: Antimicrobial activity against Burkholderia cepacia BIG 117 after 18 hrs by micro dilution method; type: functional; conditions: BIG 117, 18 h
[9] = test system: Staphylococcus aureus; test: Antimicrobial activity against Staphylococcus aureus (Oxford) NCTC 6571 after 18 hrs by micro dilution method; type: functional; conditions: (Oxford) NCTC 6571, 18 h
[10] = test system: Burkholderia cepacia; test: Antimicrobial activity against Burkholderia cepacia BIG 9 NCTC 10744 after 18 hrs by micro dilution method; type: functional; conditions: BIG 9 NCTC 10744, 18 h
[11] = test system: Pseudomonas aeruginosa; test: Antimicrobial activity against Pseudomonas aeruginosa BIG 63 after 18 hrs by micro dilution method; type: functional; conditions: BIG 63, 18 h
[12] = test system: Stenotrophomonas maltophilia; test: Antimicrobial activity against Stenotrophomonas maltophilia N1124 after 18 hrs by micro dilution method; type: functional; conditions: N1124, 18 h
[13] = test system: Burkholderia cepacia; test: Antimicrobial activity against Burkholderia cepacia BIG 121 after 18 hrs by micro dilution method; type: functional; conditions: BIG 121, 18 h
[14] = test system: Serratia marcescens; test: Antimicrobial activity against Serratia marcescens BIG 11 NCTC 1377 after 18 hrs by micro dilution method; type: functional; conditions: BIG 11 NCTC 1377, 18 h
[15] = test system: Staphylococcus aureus; test: Antimicrobial activity against Staphylococcus aureus NCTC 13142 after 18 hrs by micro dilution method; type: functional; conditions: NCTC 13142, 18 h
[16] = test system: Burkholderia cepacia; test: Ratio of compound MIC to ciprofloxacin MIC for Burkholderia cepacia BIG 9 NCTC 10744 after 18 hrs by micro dilution method; type: functional
[17] = test system: Pseudomonas aeruginosa; test: Ratio of compound MIC to ciprofloxacin MIC for Pseudomonas aeruginosa NCTC 10662 after 18 hrs by micro dilution method; type: functional
[18] = test system: Pseudomonas aeruginosa; test: Ratio of compound MIC to ciprofloxacin MIC for Pseudomonas aeruginosa environmental isolate after 18 hrs by micro dilution method; type: functional
[19] = test system: Staphylococcus epidermidis; test: Antimicrobial activity against Staphylococcus epidermidis NCTC 2749 after 18 hrs by micro dilution method; type: functional; conditions: NCTC 2749, 18 h
[20] = test system: Burkholderia cepacia; test: Ratio of compound MIC to ciprofloxacin MIC for Burkholderia cepacia BIG 118 after 18 hrs by micro dilution method; type: functional
[21] = test system: Pseudomonas aeruginosa; test: Antimicrobial activity against Pseudomonas aeruginosa BIG 37 clinical isolate after 18 hrs by micro dilution method; type: functional; conditions: BIG 37, 18 h
[22] = test system: Staphylococcus aureus; test: Ratio of compound MIC to ciprofloxacin MIC for Staphylococcus aureus (Oxford) NCTC 6571 after 18 hrs by micro dilution method; type: functional
[23] = test system: Staphylococcus epidermidis; test: Ratio of compound MIC to ciprofloxacin MIC for Staphylococcus epidermidis NCTC 11047 after 18 hrs by micro dilution method; type: functional
[24] = test system: Staphylococcus epidermidis; test: Ratio of compound MIC to ciprofloxacin MIC for Staphylococcus epidermidis NCTC 2749 after 18 hrs by micro dilution method; type: functional
[25] = test system: Burkholderia cepacia; test: Ratio of compound MIC to ciprofloxacin MIC for Burkholderia cepacia BIG 120 after 18 hrs by micro dilution method; type: functional
[26] = test system: Escherichia coli; test: Ratio of compound MIC to ciprofloxacin MIC for Escherichia coli NCTC 10418 after 18 hrs by micro dilution method; type: functional
[27] = test system: Pseudomonas aeruginosa; test: Ratio of compound MIC to ciprofloxacin MIC for Pseudomonas aeruginosa BIG 37 clinical isolate after 18 hrs by micro dilution method; type: functional
[28] = test system: Pseudomonas aeruginosa; test: Antimicrobial activity against Pseudomonas aeruginosa environmental isolate BIG 39 after 18 hrs by micro dilution method; type: functional; conditions: BIG 39, 18 h
[29] = test system: Pseudomonas aeruginosa; test: Ratio of compound MIC to ciprofloxacin MIC for Pseudomonas aeruginosa BIG 63 after 18 hrs by micro dilution method; type: functional
[30] = test system: Burkholderia cepacia; test: Ratio of compound MIC to ciprofloxacin MIC for Burkholderia cepacia BIG 117 after 18 hrs by micro dilution method; type: functional
[31] = test system: Staphylococcus aureus; test: Antimicrobial activity against Staphylococcus aureus HG-1 after 18 hrs by micro dilution method; type: functional; conditions: HG-1, 18 h
[32] = test system: Staphylococcus epidermidis; test: Antimicrobial activity against Staphylococcus epidermidis NCTC 11047 after 18 hrs by micro dilution method; type: functional; conditions: NCTC 11047, 18 h
[33] = test system: Burkholderia cepacia; test: Antimicrobial activity against Burkholderia cepacia BIG 118 after 18 hrs by micro dilution method; type: functional; conditions: BIG 118, 18 h
[34] = test system: Staphylococcus aureus; test: Ratio of compound MIC to ciprofloxacin MIC for Staphylococcus aureus BIG 52 after 18 hrs by micro dilution method; type: functional
[35] = test system: Staphylococcus haemolyticus; test: Antimicrobial activity against Staphylococcus haemolyticus NCTC 11042 after 18 hrs by micro dilution method; type: functional; conditions: NCTC 11042, 18 h
[36] = test system: Staphylococcus haemolyticus; test: Ratio of compound MIC to ciprofloxacin MIC for Staphylococcus haemolyticus NCTC 11042 after 18 hrs by micro dilution method; type: functional
[37] = test system: Stenotrophomonas maltophilia; test: Ratio of compound MIC to ciprofloxacin MIC for Stenotrophomonas maltophilia N1119 after 18 hrs by micro dilution method; type: functional
[38] = Inhibition of DNA gyrase (unknown origin) assessed as reduction in supercoiled form of DNA at 20 uM using ethidium bromide staining by gel electrophoresis
[39] = test system: Burkholderia cepacia; test: Antimicrobial activity against Burkholderia cepacia BIG 119 after 18 hrs by micro dilution method; type: functional; conditions: BIG 119, 18 h
[40] = test system: Stenotrophomonas maltophilia; test: Antimicrobial activity against Stenotrophomonas maltophilia N1119 after 18 hrs by micro dilution method; type: functional; conditions: N1119, 18 h
[41] = test system: Burkholderia cepacia; test: Antimicrobial activity against Burkholderia cepacia BIG 120 after 18 hrs by micro dilution method; type: functional; conditions: BIG 120, 18 h
[42] = test system: Escherichia coli; test: Antimicrobial activity against Escherichia coli NCTC 10418 after 18 hrs by micro dilution method; type: functional; conditions: NCTC 10418, 18 h
[43] = test system: Escherichia coli; test: Antimicrobial activity against Escherichia coli BIG 0046 after 18 hrs by micro dilution method; type: functional; conditions: BIG 0046, 18 h
[44] = test system: Burkholderia cepacia; test: Ratio of compound MIC to ciprofloxacin MIC for Burkholderia cepacia BIG 119 after 18 hrs by micro dilution method; type: functional
[45] = test system: Stenotrophomonas maltophilia; test: Ratio of compound MIC to ciprofloxacin MIC for Stenotrophomonas maltophilia N1124 after 18 hrs by micro dilution method; type: functional

MIC [1]: 32 mg/L (≈ 63.3 µM) | MIC [2]: 16 mg/L (≈ 31.7 µM) | MIC [4]: 4 mg/L (≈ 7.91 µM) | MIC [5]: > 36 mg/L | MIC [8]: 16 mg/L (≈ 31.7 µM) | MIC [9]: 16 mg/L (≈ 31.7 µM) | MIC [10]: 16 mg/L (≈ 31.7 µM) | MIC [11]: 4 mg/L (≈ 7.91 µM) | MIC [12]: > 36 mg/L | MIC [13]: > 36 mg/L | MIC [14]: 1 mg/L (≈ 1.98 µM) | MIC [15]: 8 mg/L (≈ 15.8 µM) | MIC [19]: 8 mg/L (≈ 15.8 µM) | MIC [21]: 16 mg/L (≈ 31.7 µM) | MIC [28]: 4 mg/L (≈ 7.91 µM) | MIC [31]: > 36 mg/L | MIC [32]: 16 mg/L (≈ 31.7 µM) | MIC [33]: 16 mg/L (≈ 31.7 µM) | inhibition [38]: Active | MIC [39]: > 36 mg/L | MIC [40]: 32 mg/L (≈ 63.3 µM) | MIC [41]: 16 mg/L (≈ 31.7 µM) | MIC [42]: 0.25 mg/L (≈ 0.495 µM) | MIC [43]: > 36 mg/L
SMILES: O=C(O)CC(O)(CC(=O)N1CCN(c2cc3c(cc2F)c(=O)c(C(=O)O)cn3C2CC2)CC1)C(=O)O (configuration not stated)
Ratio [3]: 11 | Ratio [6]: 10.5 | Ratio [7]: 10.5 | Ratio [16]: 20.9 | Ratio [17]: 10.5 | Ratio [18]: 10.5 | Ratio [20]: 41.8 | Ratio [22]: 41.8 | Ratio [23]: 83.8 | Ratio [24]: 20.9 | Ratio [25]: 5.2 | Ratio [26]: 2.8 | Ratio [27]: 5.2 | Ratio [29]: 10.5 | Ratio [30]: 10.5 | Ratio [34]: 20.9 | MIC [35]: 16 mg/L (≈ 31.7 µM) | Ratio [36]: 83.8 | Ratio [37]: 20.1

MIC [1]: 32 mg/L (≈ 56.9 µM) | MIC [2]: 16 mg/L (≈ 28.4 µM) | MIC [4]: 2 mg/L (≈ 3.56 µM) | MIC [5]: > 36 mg/L | MIC [8]: 8 mg/L (≈ 14.2 µM) | MIC [9]: 16 mg/L (≈ 28.4 µM) | MIC [10]: 8 mg/L (≈ 14.2 µM) | MIC [11]: 8 mg/L (≈ 14.2 µM) | MIC [12]: 32 mg/L (≈ 56.9 µM) | MIC [13]: > 36 mg/L | MIC [14]: 0.5 mg/L (≈ 0.889 µM) | MIC [15]: 16 mg/L (≈ 28.4 µM) | MIC [19]: 8 mg/L (≈ 14.2 µM) | MIC [21]: 16 mg/L (≈ 28.4 µM) | MIC [28]: 2 mg/L (≈ 3.56 µM) | MIC [31]: > 36 mg/L | MIC [32]: 16 mg/L (≈ 28.4 µM) | MIC [33]: 8 mg/L (≈ 14.2 µM) | inhibition [38]: Active | MIC [39]: 32 mg/L (≈ 56.9 µM) | MIC [40]: > 36 mg/L | MIC [41]: 32 mg/L (≈ 56.9 µM) | MIC [42]: 0.125 mg/L (≈ 0.222 µM) | MIC [43]: 36 mg/L (≈ 64 µM)
SMILES: O=C(O)CC(O)(CC(=O)NCC(=O)N1CCN(c2cc3c(cc2F)c(=O)c(C(=O)O)cn3C2CC2)CC1)C(=O)O (racemic)
Ratio [3]: 4.91 | Ratio [6]: 18.8 | Ratio [7]: 9.4 | Ratio [44]: 4.7 | Ratio [45]: 4.7 | Ratio [16]: 9.4 | Ratio [17]: 4.72 | Ratio [18]: 4.72 | Ratio [20]: 18.8 | Ratio [22]: 37.6 | Ratio [23]: 75.3 | Ratio [24]: 18.8 | Ratio [25]: 9.4 | Ratio [26]: 1.23 | Ratio [27]: 4.7 | Ratio [29]: 18.8 | Ratio [30]: 4.7 | Ratio [34]: 18.8 | MIC [35]: 16 mg/L (≈ 28.4 µM) | Ratio [36]: 75.3
